The source of these data is patent US10857214B2, “Compositions and methods for treating gluten intolerance and disorders arising therefrom” (Codexis, Inc., priority 2015, dated 2020).

Series [1] has as its system 33mer from α-gliadin. As to the kind of experiment: digestion of 33mer peptide by fluid fractions, MALDI-TOF. In kind it is biochemical. The procedure:
Left: Silver-stain SDS-PAGE of fraction 1 containing nepenthesin, and MALDI spectrum of 33mer peptide processed with fraction 1. Right: Silver-stain SDS-PAGE of fraction 2 containing an unknown enzyme, and MALDI spectrum of 33mer peptides processed with fraction 2. MALDI of undigested 33mer in red, digested 33mer in black.
Two proteolytic components were isolated. Activity was retested against a 33mer from α-gliadin using MALDI-TOF. Fractions were also analyzed for protein content using MALDI-TOF (sinapinic acid as matrix), highlighting a single peak at 29 kDa. Fractions enriched in non-specific cleavage properties were further purified using gel filtration and retested for purity and for activity against 33mer.
Fluid protein concentrate was exchanged into 50 mM glycine and subjected to column chromatofocusing with fractionation. Fractions were analyzed for activity using MALDI-TOF (Sciex 5800 TOF/TOF, α-cyano-4-hydroxycinnamic acid as matrix). To test for activity, protein substrates were incubated with aliquots of column fractions at room temperature for 20 minutes and the digests analyzed by MALDI-TOF. Fractions enriched in proline cleavage were manually purified by reversed phase chromatography on Protein MacroTraps (Optimize Technologies). Enzyme was eluted and confirmed active against protein substrates.

For series [2], the system named is crude gliadin. The series is described as follows: crude gliadin slurry clarification (gravimetric analysis, turbidity at 595 nm). The format is biochemical, wheat. To be noted: 10 g/L crude gliadin slurry, pH 2.5, 37° C.; enzyme alone. As to the method: Inset: temporal profiling of slurry (left to right: 0, 30, 60, 90 min) using the protein-enriched fluid extract. […] Turbidity of the digested gliadin was monitored as absorbance at 595 nm ([…]). Black lines represent the turbidity of the gliadin slurry in the absence of protease. Measurement precision was <3% RSD (n=3). […] Data taken from FIGS. 8A-8C. Values reported as milligrams of gliadin per micromolar enzyme concentration per minute digestion time. […] Digest progress was monitored by gravimetric analysis, optical transmission, SDS-PAGE and mass spectrometry. […] For monitoring with optical transmission, digestion reactions were conducted in 96-well plate with ≥3 replicates of each reaction condition, and turbidity monitored at 595 nm at 37° C. every 2 minutes, for 90 minutes (SpectraMax plate reader, Molecular Devices). […] An aliquot of the reaction mixture was analyzed on an 8% SDS-PAGE gel. The remaining amount was centrifuged and the supernatant was analyzed by mass spectrometry.

Series [3] deals with α-gliadin peptide 33mer. As to the kind of experiment: digestion profile of α-gliadin peptide 33mer under dilute conditions, LC-MS. The format is biochemical. As to conditions: equivalent digestion conditions at optimum pH (2 for pepsin, 7 for MX). The text has this:
Normalized relative abundance measured from LC-MS ion chromatograms, using caffeine as internal standard. Figure discloses SEQ ID NOS 88, 28, and 89-91, respectively, in order of appearance.
Using the pepsin-resistant 33mer, the evolution of peptide products was monitored under dilute conditions.

Series [4] concerns crude gliadin. The series is described as follows: SDS-PAGE and proteomic LC-MS/MS analysis of crude gliadin digests. The format is biochemical, Triticum aestivum. As to the method:
Digestions at pH 2.5 and 37° C., for 90 min. All concentrations in μM. M: Molecular weight markers, and gliadin: total crude gliadin in the absence of protease. […] Peptide data from LC-MS/MS runs, with intensities obtained using Protein Deconvolution 1.0. […] A stock gliadin slurry of 20-50 mg/ml was prepared in acidic solution (100 mM glycine HCl, pH 2.5) and briefly sonicated to further break up large particulates and promote suspension. Digestions of 10 mg/mL gliadin slurries were initiated by addition of enzyme (pepsin, fluid enzymes or both) and held at 37° C. with gentle rotation. Digest progress was monitored by gravimetric analysis, optical transmission, SDS-PAGE and mass spectrometry. For gravimetric analysis, digests were quenched by boiling and treated with TCA/chloroform, followed by centrifugation to recover undigested or poorly digested protein. For monitoring with optical transmission, digestion reactions were conducted in 96-well plate with ≥3 replicates of each reaction condition, and turbidity monitored at 595 nm at 37° C. every 2 minutes, for 90 minutes (SpectraMax plate reader, Molecular Devices). The plate was shaken at medium speed briefly between measurements. The digests were quenched after 90 min reaction by boiling for 10 minutes (confirmed to have no impact on digestion profile, a posteriori). An aliquot of the reaction mixture was analyzed on an 8% SDS-PAGE gel. The remaining amount was centrifuged and the supernatant was analyzed by mass spectrometry. Supernatant was analyzed by data-dependent LC-MS/MS, in two 1-hour reversed phase gradient runs, configured for top-10 ion selection using CID in a high/low configuration. In one run, ion selection was restricted to 2+ and higher charge states. In the other run, ion selection was applied to 1+ charge states only. Data from both runs were combined and searched against all UniprotKB/Swiss-Prot entries for gliadin and glutenin from Triticum aestivum (25 proteins), using Mascot v2.3, configured for non-specific digestions and filtered for peptide hits with p<0.05. For estimation of peptide size distribution, all LC-MS spectra were combined and deconvoluted in Protein Deconvolution v1.0, with appropriate settings. For label-free quantitative analysis using the subset of the digest identified in the database search, the hit list was combined with the raw data in Mass Spec Studio and used to generate a set of peptide ion chromatograms, integrated over all isotopes to determine a weight-average intensity for each peptide sequence identified.

Series [5] deals with crude gliadin digests treated with human transglutaminase-2. The series is described as follows: TG2-induced deamidation of gliadin digestion products. The format is biochemical. As to conditions: 0.1 mg/mL human transglutaminase-2, pH 7.5, 37° C., 90 minutes. The text has this:
Fractional deamidation quantified for all peptides from ion chromatogram intensities; data presented as a ratio, where the antigenic peptide deamidation is normalized to the non-antigenic peptide deamidation at the indicated protease concentration. Antigenic regions defined using the DQ2 criteria, inset table.
Whether enhanced digestion profiles would impact deamidation in antigenic regions was investigated. The recognition of immunodominant peptides by T cells is amplified when these peptides are deamidated in their core binding region by tissue transglutaminase 2 (TG2), particularly at position P4 or P6 in HLA DQ2 associated celiac disease. […] Crude gliadin digests were analyzed for the conversion of non-deamidated peptides to deamidated forms, and sorted all the peptides using a previously published algorithm for the identification of DQ2 binding motifs.
Supernatants from crude gliadin digests were treated with 0.1 mg/mL human transglutaminase-2 (R&D Systems, Cat. 4376-TG-050) in 100 mM Tris-HCl pH 7.5, 2 mM CaCl2 at 37° C. for 90 minutes, and quenched at 95° C. for 15 minutes, following a published protocol. Treated digests were analyzed by data-dependent LC-MS/MS as described above, allowing for variable N and Q deamidation in database searches. […]

For series [6], the system named is NOD DQ8 mice. The series is described as follows: transgenic NOD/HLA-DQ8 mouse model of gliadin sensitivity. As to conditions: gliadin codigested with pepsin 100:1 and fluid enzyme 264:1 or nepenthesin II 100:1; pepsin alone is positive control.

Turning to “pepsin: gastric enzyme (EC 3.4.23.1) used as control protease”, in series [1], the “digestion of 33mer peptide derived from α-gliadin” value is “highly resistant to digestion”. In series [2], this substance came in with a maximum clarification rate of 0.3 mg/µM/min. Further, the “hydrolysis of 33mer peptide” value in series [3] is recorded as “Neither pepsin nor a bacterial prolyl endoprotease from Myxococcus xanthus (MX) were able to hydrolyse”. The “digestion of total protein of crude gliadin by SDS-PAGE” value in series [4] (10 mg/ml gliadin, pH 2.5, 37° C., 90 min) is given as “could not be achieved”. Moreover, the “detected digest product having a molecular weight greater than 4000 Da” value in series [4] (10 mg/ml gliadin, pH 2.5, 37° C., 90 min, high concentrations of pepsin) was 25 wt %. Further, in series [4] (10 mg/ml gliadin, pH 2.5, 37° C., 90 min, pepsin 5 μM, fluid extract 0.23 μM), the “average peptide length, label-free, all peptide signals” value is reported as 19.2 residues. Moreover, the “weighted average peptide length, identified peptides” value in series [4] (pepsin 5 μM, fluid protease 0.46 μM, co-digestion using these two concentrations) is given as 16.9 residues. Further, the “peptide conversion (deamidation) in antigenic regions compared to non-antigenic regions” value in series [5] is listed as “over 5.5 times”. For the same substance, the “small intestinal CD3+ intraepithelial lymphocyte (IEL) counts” value in series [6] is “significant increases”.
